Data: US11166926B2 (priority 2018, dated 2021)
≈ marks a conversion by molar mass, not a printed value. Where “and” joins values, the source holds several entries; their conditions need not be identical. Equal values may be shown once. Read-outs that look alike come from different tables or passages of the source.

Key:
[1] = tested on: C. difficile; test: microbe, parasite or virus in culture; format: cell-based
[2] = rats; cited from earlier work
[3] = tested on: CaCo-2 cells; test: CaCo-2 monolayer integrity / trans-epithelial resistance after TcdB; format: cell-based, human
[4] = target: T1, TcdA (Clostridioides difficile, UniProt P16154); test: cell-based; format: cell-based, C. difficile; conditions: for IC50: IC50 TcdA, means ± s.d.
T1 construct: made in house; host or cells: Bacillus megaterium (the general sentence on recombinant toxins)
T1 sequence (P16154 whole entry, looked up): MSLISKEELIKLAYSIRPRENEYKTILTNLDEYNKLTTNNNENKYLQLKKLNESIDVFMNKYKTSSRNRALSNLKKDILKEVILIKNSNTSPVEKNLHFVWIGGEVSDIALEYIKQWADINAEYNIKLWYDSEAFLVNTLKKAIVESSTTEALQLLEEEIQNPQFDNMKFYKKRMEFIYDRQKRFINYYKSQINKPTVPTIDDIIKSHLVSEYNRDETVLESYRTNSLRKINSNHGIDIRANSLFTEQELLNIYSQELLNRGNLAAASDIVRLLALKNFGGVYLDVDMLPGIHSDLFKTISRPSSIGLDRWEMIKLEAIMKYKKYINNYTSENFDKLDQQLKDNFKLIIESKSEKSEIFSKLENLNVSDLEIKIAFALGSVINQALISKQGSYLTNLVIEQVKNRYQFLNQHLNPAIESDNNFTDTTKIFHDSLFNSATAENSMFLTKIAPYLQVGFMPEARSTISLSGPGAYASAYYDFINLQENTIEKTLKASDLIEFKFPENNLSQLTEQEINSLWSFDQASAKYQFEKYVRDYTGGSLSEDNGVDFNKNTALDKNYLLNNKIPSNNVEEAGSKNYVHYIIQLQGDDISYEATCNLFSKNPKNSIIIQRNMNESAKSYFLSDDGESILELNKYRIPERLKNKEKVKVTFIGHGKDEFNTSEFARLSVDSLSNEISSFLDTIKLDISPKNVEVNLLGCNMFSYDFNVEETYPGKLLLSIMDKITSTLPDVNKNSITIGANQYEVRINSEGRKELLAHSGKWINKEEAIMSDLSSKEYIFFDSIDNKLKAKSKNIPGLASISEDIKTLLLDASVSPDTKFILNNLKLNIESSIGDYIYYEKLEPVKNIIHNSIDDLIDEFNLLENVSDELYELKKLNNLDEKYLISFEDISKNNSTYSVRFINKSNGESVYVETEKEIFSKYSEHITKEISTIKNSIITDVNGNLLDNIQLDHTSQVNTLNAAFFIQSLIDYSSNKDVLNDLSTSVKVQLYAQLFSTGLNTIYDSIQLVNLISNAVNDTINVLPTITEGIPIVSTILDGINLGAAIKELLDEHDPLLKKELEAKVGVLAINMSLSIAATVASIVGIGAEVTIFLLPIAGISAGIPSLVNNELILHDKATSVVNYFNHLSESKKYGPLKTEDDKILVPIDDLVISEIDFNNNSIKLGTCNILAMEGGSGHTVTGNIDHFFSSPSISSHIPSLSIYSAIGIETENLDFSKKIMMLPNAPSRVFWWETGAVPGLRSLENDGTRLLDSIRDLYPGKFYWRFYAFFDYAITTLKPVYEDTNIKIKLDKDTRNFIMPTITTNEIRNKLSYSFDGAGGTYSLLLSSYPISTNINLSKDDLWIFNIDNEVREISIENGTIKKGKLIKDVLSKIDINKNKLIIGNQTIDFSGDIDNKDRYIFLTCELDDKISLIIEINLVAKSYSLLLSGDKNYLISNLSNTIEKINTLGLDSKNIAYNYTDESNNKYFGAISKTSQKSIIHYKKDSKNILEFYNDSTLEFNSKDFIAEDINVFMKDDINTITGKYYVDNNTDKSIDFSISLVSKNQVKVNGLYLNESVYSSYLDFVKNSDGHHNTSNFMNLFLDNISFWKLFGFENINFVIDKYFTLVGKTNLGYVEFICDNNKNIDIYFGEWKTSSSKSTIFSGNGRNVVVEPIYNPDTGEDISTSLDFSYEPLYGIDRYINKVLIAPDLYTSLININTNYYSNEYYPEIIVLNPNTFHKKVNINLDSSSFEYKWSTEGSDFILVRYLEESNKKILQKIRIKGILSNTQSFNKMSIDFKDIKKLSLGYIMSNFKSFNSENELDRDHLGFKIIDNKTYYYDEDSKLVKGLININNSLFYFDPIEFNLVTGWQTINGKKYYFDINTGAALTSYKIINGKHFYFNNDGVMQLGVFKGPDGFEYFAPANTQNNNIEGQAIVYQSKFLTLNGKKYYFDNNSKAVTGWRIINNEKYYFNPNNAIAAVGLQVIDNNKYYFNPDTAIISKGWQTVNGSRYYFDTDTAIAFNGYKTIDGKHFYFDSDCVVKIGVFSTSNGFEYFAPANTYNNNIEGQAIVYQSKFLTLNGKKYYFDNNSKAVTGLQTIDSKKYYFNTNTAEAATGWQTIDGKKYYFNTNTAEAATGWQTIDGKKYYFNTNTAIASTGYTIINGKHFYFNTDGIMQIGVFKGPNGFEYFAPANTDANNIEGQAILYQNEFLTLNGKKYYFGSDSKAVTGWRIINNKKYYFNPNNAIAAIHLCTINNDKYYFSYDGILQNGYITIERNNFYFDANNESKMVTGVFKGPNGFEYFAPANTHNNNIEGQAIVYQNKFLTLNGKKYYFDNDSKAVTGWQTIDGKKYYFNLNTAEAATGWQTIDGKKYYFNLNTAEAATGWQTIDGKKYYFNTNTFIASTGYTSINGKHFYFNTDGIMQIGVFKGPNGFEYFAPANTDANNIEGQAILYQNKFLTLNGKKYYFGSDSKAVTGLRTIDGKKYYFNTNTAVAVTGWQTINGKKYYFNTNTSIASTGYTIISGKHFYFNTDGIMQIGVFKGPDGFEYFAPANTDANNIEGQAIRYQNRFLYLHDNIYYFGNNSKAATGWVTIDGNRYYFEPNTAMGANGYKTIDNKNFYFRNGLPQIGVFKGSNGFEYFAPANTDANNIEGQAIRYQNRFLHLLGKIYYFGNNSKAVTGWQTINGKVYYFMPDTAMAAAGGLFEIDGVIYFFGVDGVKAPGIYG

[5] = tested on: C. difficile; format: in vivo, mice
[6] = tested on: C. sporogenes ATCC3584; test: microbe, parasite or virus in culture; format: cell-based; conditions: Clostridium sporogenes
[7] = tested on: C. clostridioforme ATCC25537; test: organism not typed; format: cell-based
[8] = target: TcdB027 (Clostridioides difficile, UniProt A0A9R0CDJ3); format: cell-based, C. difficile
[9] = tested on: C. difficile; test: microbe, parasite or virus in culture; format: cell-based; remark: listed apart in the source
[10] = target: T2, TcdB (Clostridioides difficile, UniProt P18177); test: cell-based; design: species or system C. difficile; conditions: for inhibition at 40 µM: IMR-90, read-out: inhibition of TcdB-induced cell rounding
Target sequence in this assay (P18177 2-2366 limits assumed): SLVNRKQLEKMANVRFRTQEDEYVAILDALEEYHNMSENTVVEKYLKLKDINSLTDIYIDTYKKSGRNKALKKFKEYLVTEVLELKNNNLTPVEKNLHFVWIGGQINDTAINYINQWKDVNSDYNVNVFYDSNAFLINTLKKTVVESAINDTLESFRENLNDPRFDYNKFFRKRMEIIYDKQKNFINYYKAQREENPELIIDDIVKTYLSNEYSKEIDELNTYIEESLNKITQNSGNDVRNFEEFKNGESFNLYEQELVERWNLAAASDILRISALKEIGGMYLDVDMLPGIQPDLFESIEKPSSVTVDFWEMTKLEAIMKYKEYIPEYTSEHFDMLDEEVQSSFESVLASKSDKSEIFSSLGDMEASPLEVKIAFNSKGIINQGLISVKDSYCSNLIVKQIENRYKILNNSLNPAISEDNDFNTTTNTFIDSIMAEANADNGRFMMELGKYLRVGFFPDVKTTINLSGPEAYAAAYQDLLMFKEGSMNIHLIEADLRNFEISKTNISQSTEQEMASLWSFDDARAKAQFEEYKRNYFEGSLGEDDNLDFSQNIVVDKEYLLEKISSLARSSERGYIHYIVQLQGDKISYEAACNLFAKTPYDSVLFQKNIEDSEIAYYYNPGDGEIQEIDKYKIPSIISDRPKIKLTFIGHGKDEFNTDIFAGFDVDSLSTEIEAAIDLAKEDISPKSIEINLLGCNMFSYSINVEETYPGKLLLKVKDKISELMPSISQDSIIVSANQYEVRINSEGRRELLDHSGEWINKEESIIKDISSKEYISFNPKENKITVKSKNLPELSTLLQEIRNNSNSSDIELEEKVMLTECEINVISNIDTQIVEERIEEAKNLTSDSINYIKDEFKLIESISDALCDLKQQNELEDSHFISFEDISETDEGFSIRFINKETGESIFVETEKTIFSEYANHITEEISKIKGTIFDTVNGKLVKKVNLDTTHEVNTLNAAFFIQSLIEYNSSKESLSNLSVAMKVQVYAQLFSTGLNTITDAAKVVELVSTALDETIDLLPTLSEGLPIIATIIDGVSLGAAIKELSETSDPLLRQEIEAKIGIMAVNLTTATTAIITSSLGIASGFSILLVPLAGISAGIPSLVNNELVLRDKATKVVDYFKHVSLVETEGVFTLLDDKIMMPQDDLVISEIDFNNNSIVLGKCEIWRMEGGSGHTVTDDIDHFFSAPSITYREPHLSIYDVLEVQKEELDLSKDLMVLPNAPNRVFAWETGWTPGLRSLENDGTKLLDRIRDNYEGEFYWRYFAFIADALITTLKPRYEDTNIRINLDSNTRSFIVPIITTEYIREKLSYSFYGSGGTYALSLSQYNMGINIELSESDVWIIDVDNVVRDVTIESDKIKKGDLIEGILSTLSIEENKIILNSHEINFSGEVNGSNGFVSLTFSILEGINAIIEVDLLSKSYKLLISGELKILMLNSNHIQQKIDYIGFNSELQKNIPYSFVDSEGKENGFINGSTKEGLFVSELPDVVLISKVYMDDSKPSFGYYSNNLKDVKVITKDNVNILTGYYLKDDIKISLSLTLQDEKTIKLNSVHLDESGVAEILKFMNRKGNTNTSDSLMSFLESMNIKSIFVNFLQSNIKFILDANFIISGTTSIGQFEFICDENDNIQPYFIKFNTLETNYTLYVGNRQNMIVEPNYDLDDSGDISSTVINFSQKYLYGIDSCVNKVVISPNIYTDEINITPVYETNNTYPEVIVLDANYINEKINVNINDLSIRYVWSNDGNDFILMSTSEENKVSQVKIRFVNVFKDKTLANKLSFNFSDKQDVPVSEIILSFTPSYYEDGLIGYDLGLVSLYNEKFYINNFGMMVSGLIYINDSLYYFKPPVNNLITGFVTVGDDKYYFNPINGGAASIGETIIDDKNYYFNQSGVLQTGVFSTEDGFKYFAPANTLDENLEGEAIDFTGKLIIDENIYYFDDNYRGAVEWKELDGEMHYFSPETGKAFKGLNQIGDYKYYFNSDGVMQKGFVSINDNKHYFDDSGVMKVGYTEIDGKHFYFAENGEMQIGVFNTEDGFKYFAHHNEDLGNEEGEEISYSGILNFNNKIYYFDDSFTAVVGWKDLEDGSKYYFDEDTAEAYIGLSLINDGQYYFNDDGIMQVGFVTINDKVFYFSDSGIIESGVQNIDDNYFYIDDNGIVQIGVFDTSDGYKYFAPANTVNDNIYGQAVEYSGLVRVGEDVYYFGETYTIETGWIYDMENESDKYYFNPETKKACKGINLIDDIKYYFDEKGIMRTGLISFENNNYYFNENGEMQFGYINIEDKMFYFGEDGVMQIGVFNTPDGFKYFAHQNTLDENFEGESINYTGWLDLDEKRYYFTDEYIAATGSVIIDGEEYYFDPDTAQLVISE

[11] = target: T2, TcdB
Protocol: TcdB protein was diluted in phosphate buffer (100 mM KPO4, 150 mM NaCl, pH 7) containing 5×SYPRO Orange (Invitrogen, Burlington, ON) and a serial dilution of test compound. A Biorad CFX96 qRT-PCR thermocycler was used to establish a temperature gradient from 15° C. to 95° C. in 30 s increments, while simultaneously recording the increase in SYPRO Orange fluorescence as a consequence of binding to hydrophobic regions exposed on unfolded proteins. The Bio-Rad CFX Manager 3.1 software was used to integrate the fluorescence curves to calculate the melting point.

[12] = target: T2, TcdB; remark: listed apart in the source
Target sequence in this assay (P18177 2-2366 limits assumed): as above
Protocol: Loss of cellular ATP as a marker of high dose (1 nM) TcdB toxicity was measured as described for the Arrayscan screen protocol, except that CellTiter-Glo reagent (Promega, Madison, Wis.) was added to the cells 3 h post toxin challenge, and luminescence was recorded on a Spectramax M5 plate reader.

[13] = target: T3, TcdB glucosyltransferase domain (GTD) (Clostridioides difficile, UniProt P18177); test: In vitro GTD glucosyltransferase assay; format: biochemical, C. difficile; conditions: up to 10 μM niclosamide, n=3
T3 construct: The TcdB glucosyltransferase domain (GTD); made in house
Protocol: (§1) FIG. 2. […] (a) Representative Western blot image for intracellular Rac1 glucosylation. […] Cells were harvested in lysis buffer 1 h later and processed for Western blot as described in Online Methods. […] (b) In vitro GTD glucosyltransferase assay. […] Activity was measured as described in the Online Methods. (c) In vitro auto-processing assay.
For each reaction containing 10 nM GTD and 25 μM UDP-glucose, compound was added (1% final DMSO) and preincubated 30 minutes, followed by addition of gstRac1 to 0.8 μM. The reaction was stopped after a 60 min reaction time with an equal volume of Laemmli loading buffer plus β-mercaptoethanol (Bio-Rad, Mississauga. ON), heated to 90° C. before immediately loading on an SDS polyacrylamide gel. […]
Reactions were started with the simultaneous addition of 2.5 μl each of GST-Rac1 (20 μM final) and a mixture of 0.5 μCi of UDP-[6 ^3H]-glucose (0.5 μM final) and cold UDP-glucose (19.5 μM final). […] The beads were allowed to settle overnight at room temperature to increase the signal to background ratio before being analyzed on a TopCount NXT scintillation counter (PerkinElmer). Results were analyzed using GraphPad Prism 5.0.
Experiments were performed as per the manufacturer's instructions. […] Results were analyzed with SoftMax Pro 6.2.2 and GraphPad Prism 5.0.

[14] = target: T4, CDT (Clostridioides difficile, UniProt A0A9R0BM17+A0A9R0BM20); test: Inhibition of C. difficile toxin-induced cytotoxicity, CDT (actin depolymerization); conditions: same doses that protect cells from TcdB
T4 sequence (A0A9R0BM17 210-876): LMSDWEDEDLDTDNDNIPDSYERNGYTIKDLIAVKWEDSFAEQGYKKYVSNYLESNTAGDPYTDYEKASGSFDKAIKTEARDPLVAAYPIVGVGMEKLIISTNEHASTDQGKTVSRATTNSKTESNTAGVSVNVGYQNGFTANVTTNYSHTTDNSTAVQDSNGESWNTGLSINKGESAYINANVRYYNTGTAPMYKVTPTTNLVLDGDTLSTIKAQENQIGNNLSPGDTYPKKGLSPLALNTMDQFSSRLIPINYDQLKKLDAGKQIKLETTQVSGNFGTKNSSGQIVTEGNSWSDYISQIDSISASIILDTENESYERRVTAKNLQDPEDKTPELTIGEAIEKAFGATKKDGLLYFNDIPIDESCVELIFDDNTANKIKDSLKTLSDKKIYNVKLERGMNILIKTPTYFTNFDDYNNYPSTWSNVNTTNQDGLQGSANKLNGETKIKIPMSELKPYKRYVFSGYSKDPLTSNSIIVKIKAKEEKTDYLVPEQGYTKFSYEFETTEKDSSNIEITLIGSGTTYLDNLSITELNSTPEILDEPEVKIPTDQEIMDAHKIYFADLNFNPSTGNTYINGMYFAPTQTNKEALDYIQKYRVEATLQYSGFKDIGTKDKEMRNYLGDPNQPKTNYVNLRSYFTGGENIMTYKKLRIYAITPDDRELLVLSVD
T4 sequence (A0A9R0BM20 44-463): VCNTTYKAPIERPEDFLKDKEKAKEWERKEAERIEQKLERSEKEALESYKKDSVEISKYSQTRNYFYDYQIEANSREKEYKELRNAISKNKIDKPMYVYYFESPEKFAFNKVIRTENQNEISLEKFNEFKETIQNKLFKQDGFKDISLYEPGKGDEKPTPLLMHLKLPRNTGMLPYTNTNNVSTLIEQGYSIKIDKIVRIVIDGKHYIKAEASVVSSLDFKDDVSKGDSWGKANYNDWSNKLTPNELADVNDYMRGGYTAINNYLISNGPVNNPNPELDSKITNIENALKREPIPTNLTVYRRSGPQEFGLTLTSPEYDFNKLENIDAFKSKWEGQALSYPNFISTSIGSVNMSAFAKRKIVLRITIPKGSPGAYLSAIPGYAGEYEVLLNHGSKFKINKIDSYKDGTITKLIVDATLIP
Protocol: Cells were stained with 1 uM Hoechst for 30 min, then combined photos were taken for each compound at a concentration corresponding to maximum protection from TcdB using a 10× objective and appropriate filter sets for Hoechst and Alexa488 fluorescence (Zeiss).

[15] = tested on: IMR90 cells; test: Lysotracker assay, endosomal pH neutralization; format: cell-based, human; conditions: pre-treating cells
Protocol: Endosomal pH neutralization was assayed essentially as described by Slater et al. (55); IMR90 cells in complete EMEM were plated at 14,000 cells/well (˜95% confluency). After 24 h the media was changed to SFM for 60 minutes, then compound was added to 40 μM and incubated at 37° C. for 2 h. Lysotracker red DND-99 and Hoechst (Life Technologies) were added to 0.1 μM and 1 μM, respectively, and incubated for 60 minutes. Excess dye was removed by media change and the fluorescence at ex/em 574/594 was read on an Envision plate reader (Perkin Elmer). Representative cell images were taken using a Zeiss Axiovert fluorescence microscope using DAPI and Texas Red filters to visualize the Hoechst and Lysotracker staining, respectively.

[16] = tested on: Rac1 glucosylation; test: Intracellular Rac1 glucosylation Western blot; format: cell-based, human; conditions: IMR-90 cells, niclosamide 15 min then TcdB, harvested 1 h later
Protocol: as §1

[17] = target: T2, TcdB; conditions: mammalian cells expressing all three known receptors
Target sequence in this assay (P18177 2-2366 limits assumed): as the sequence (P18177 2-2366 limits assumed) above
Protocol: TcdB binding to Vero cells was assessed as described earlier with minor modifications(57). […] Mixtures were then added to confluent cultures of pre-chilled Vero cells and plates were incubated on ice for 45 min. Plates were then washed 3 times with cold PBS and harvested by scraping. Membranes were isolated, and samples analyzed by Western blot as previously described (57).

[18] = target: T5, TcdB APD domain (Clostridioides difficile, UniProt P18177); test: In vitro inositol hexakisphosphate-induced autoprocessing (cysteine protease) assay; format: biochemical, C. difficile; conditions: up to 10 μM niclosamide
T5 construct: Cell lysates were prepared as described for full-length TcdB; made in house; host or cells: Bacillus megaterium
Description: Cleavage was visualized by electrophoresing the samples on SDS polyacrylamide gels and staining with Coomassie Blue R250.

## CCc1c(Cl)c(O)c(Cl)c(O)c1C(=O)O[C@H]1[C@H](O)[C@H](OC)[C@H](OC/C2=C\C=C\C[C@H](O)/C(C)=C/[C@H](CC)[C@@H](O[C@@H]3OC(C)(C)[C@@H](OC(=O)C(C)C)[C@H](O)[C@@H]3O)/C(C)=C/C(C)=C/C[C@@H]([C@@H](C)O)OC2=O)O[C@@H]1C [Fidaxomicin]
[1]
  MIC: 0.06 μg/mL and 0.06^4 μg/mL
[1]; Clostridioides difficile
  MIC: 0.12 µg/mL (≈ 0.113 µM)

## O=C(Nc1ccc([N+](=O)[O-])cc1Cl)c1cc(Cl)ccc1O [NEN, niclosamide ethanolamine]
[2]
  median oral lethal dose (LD50): 10,000 mg/kg body weight
[3]; Caco-2 cell monolayers
  TEER assay, dose dependence: dose-dependently protects
[4]
  IC50: 550 ± 80 nM
[5]; NEN 50 mg/kg
  survival of recurrence: all NEN-treated mice survived recurrence
[5]; NEN 50 mg/kg oral gavage, vancomycin 0.5 mg/mL in drinking water, more than 60% of control moribund
  survival from C. difficile challenge: all mice in the NEN group survived
[5]; mouse, in vivo
  diarrhea scores at recurrence: less severe diarrhea scores
[6]
  MIC: > 19 µg/mL
[7]
  MIC: > 19 µg/mL
[8]
  protection against TcdB derived from hypervirulent strains: protected

## CN[C@H](CC(C)C)C(=O)N[C@H]1C(=O)N[C@@H](CC(N)=O)C(=O)N[C@H]2C(=O)N[C@H]3C(=O)N[C@H](C(=O)N[C@H](C(=O)O)c4cc(O)cc(O)c4-c4cc3ccc4O)[C@H](O)c3ccc(c(Cl)c3)Oc3cc2cc(c3O[C@@H]2O[C@H](CO)[C@@H](O)[C@H](O)[C@H]2O[C@H]2C[C@](C)(N)[C@H](O)[C@H](C)O2)Oc2ccc(cc2Cl)[C@H]1O [Vancomycin]
[6]
  MIC: 8 µg/mL (≈ 5.52 µM)
[7]
  MIC: 4 µg/mL (≈ 2.76 µM)
[9]
  MIC: 2 µg/mL (≈ 1.38 µM)
[9]; Clostridioides difficile
  MIC: 1 µg/mL (≈ 0.69 µM)

## Cc1cc(C(C#N)c2ccc(Cl)cc2)c(Cl)cc1NC(=O)c1cc(I)cc(I)c1O (stereo not shown) [closantel]
[10]; high-throughput screen, libraries screened at 40 μM, IMR90 cells
  inhibition of TcdB-induced cell rounding: 60%

## O=C(Nc1ccc([N+](=O)[O-])cc1Cl)c1cc(Cl)ccc1O [niclosamide]
[3]; Caco-2 cells
  TcdB-induced reduction in Phalloidin staining: prevented
[3]; co-treatment with TcdB, confluent CaCo-2 monolayer
  TcdB-induced disruption of monolayer integrity: prevented
[10]
  inhibition at 40 µM: 71%
[10]; human IMR-90 fibroblasts co-incubated with niclosamide and TcdB
  Protection from TcdB-induced cell-rounding (extent): complete
[11]
  direct binding interaction with TcdB (thermal stability): no evidence for a direct binding interaction
[4]
  protection from TcdA-induced cell rounding: completely protected
  IC50: 500 ± 100 nM
[12]
  TcdB-induced necrosis: inhibited
[13]
  inhibition of GTD enzymatic activity in vitro: no direct inhibition
[14]
  protection from CDT-induced damage (depolymerization of the actin cytoskeleton): completely protected
[15]
  Lysotracker fluorescent staining (endosomal pH): reduces Lysotracker fluorescent staining
[16]
  Rac1 glucosylation in cells: dose-dependently inhibits
[17]
  TcdB binding to the cell surface: did not affect
[18]
  Release of GTD by the APD domain (autoprocessing): unaffected

## O=C(Nc1cc(Cl)cc(Cl)c1O)c1c(O)c(Cl)cc(Cl)c1Cl [oxyclozanide]
[10]
  inhibition at 40 µM: 43%
